Measured values from PMC5164911, “Comparative Analysis of the Interaction between Different Flavonoids and PDIA3” (Oxidative Medicine and Cellular Longevity, 2016).

How the values were obtained:
[1] = target: T1, PDIA3 a′ domain (residues 377–505) (Homo sapiens, UniProt P30101); assay: Fluorescence quenching titration of isolated a′ domain; format: binding; conditions: a′ domain 1 μM, reduced form; data not shown
T1 construct: second redox-active domain (a′ domain, residues 377–505); made in house; host or cells: E. coli BL21 (vector pET29)
T1 sequence (P30101 377-505): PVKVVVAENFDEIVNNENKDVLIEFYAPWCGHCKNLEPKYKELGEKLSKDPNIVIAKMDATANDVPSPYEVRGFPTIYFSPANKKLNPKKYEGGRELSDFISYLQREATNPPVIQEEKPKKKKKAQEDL
Excerpt: Human recombinant PDIA3 was cloned and expressed in E. coli strain BL21 using the expression vector pET21 (Novagen) as previously described. The coding sequence for the second redox-active domain (a′ domain, residues 377–505) was amplified by PCR as previously described and cloned in the expression vector pET29 (Novagen). Recombinant proteins were expressed in E. coli strain BL21 and purified by ammonium sulphate fractionation, ion exchange, and heparin chromatography. Protein purification was evaluated by SDS-PAGE and concentration was determined spectrophotometrically (PDIA3 ℇ 280 reduced form = 44,810 M^−1 cm^−1; a′ domain ℇ 280 reduced form = 14,400 M^−1 cm^−1).
Quantitative analysis of the interaction between individual flavonoids and PDIA3 was performed by fluorimetric titration. Fluorescence spectra were recorded using a SPEX-FluoroMax spectrofluorimeter (Horiba Scientific) from 300 to 500 nm with excitation at 290 nm using a 10 mm path length quartz fluorescence cuvette and under continuous stirring. The excitation and emission slits were both set to 5 nm and scan speed was 120 nm·min^−1. […] Fluorescence spectra of appropriate blanks (flavonoids without proteins) were recorded under the same experimental conditions and subtracted from the corresponding flavonoid-protein system to correct the fluorescence background. Fluorescence intensities recorded at 338 nm were used for quenching analysis and data obtained for each flavonoid are the average of at least three independent titration experiments.
Quenching analysis was performed on PDIA3 (0.5 μM), in the reduced form, by adding stepwise increasing concentration of each molecule and recording the protein fluorescence spectra. […] Quenching effect on protein and Stern-Volmer quenching constant (K SV) were calculated from the fluorescence intensities at 338 nm of protein alone (F 0) and in the presence of increasing concentration of each ligand molecule (F) using the Stern-Volmer equation [40]: (1) F0/F=1+KSVL, where L is the ligand concentration. […]

PDIA3 = target: T2, PDIA3 (Homo sapiens, UniProt P30101); assay: Disulfide reductase activity with DiE-GSSG fluorogenic probe; format: biochemical; conditions: DiE-GSSG substrate; for Inhibition of disulfide reductase (redox) activity: 20 μM flavonoid (Figure 7)
T2 construct: made in house; host or cells: E. coli BL21 (vector pET21)
T2 sequence (P30101 25-505): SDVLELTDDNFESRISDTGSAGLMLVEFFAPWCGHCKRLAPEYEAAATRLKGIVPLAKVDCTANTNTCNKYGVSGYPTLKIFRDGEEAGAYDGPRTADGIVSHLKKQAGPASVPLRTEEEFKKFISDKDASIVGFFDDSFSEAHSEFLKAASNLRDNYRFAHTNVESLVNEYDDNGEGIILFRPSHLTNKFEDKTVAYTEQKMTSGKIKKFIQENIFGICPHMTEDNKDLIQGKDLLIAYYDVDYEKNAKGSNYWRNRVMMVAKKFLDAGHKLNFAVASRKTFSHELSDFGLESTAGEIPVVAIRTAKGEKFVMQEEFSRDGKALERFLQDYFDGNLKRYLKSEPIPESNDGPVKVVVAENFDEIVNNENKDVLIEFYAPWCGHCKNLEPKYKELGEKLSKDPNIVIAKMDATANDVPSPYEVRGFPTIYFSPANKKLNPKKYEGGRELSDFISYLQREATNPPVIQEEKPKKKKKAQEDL
Protocol: Disulfide reductase activity of ERp57 was monitored by sensitive fluorescent assay using dieosin glutathione disulfide (DiE-GSSG) as fluorogenic probe. DiE-GSSG was synthesized by the reaction of eosin isothiocyanate with oxidized glutathione (GSSG) according to the method of Raturi and Mutus with some modifications. DiE-GSSG concentration was determined spectrophotometrically (ℇ 525 = 88,000 M^-1 cm^−1). Disulfide reductase activity was assayed in a reaction buffer containing 2 mM EDTA, 150 nM DiE-GSSG, and 5 μM DTT in PBS. A 20 μl aliquot of a stock solution of PDIA3 (1 μM) was added to the reaction mixture and DiE-GSSG reduction was monitored at 545 nm with excitation at 520 nm, at 25°C with continuous stirring. Reductase activity was calculated as the initial velocity in fluorescence increase. To test the effect of flavonoids on PDIA3 activity, the protein stock solution was previously incubated for 15 minutes at room temperature with different concentrations of each flavonoid and then a 20 μl aliquot subjected to assay in a reaction buffer containing the same concentration of the flavonoid.
Fluorescence quenching constant (K SV) values were given as means ± standard deviation and values of disulfide reductase activity were expressed in % of control sample ± relative standard deviation. All measurements were performed at least three times. Dunnett's test was used to compare the obtained reductase activity data with the activity of the untreated protein and a p value of <0.01 was considered as statistically significant.

Compound	Affinity for isolated a′ domain [1]	Inhibition of disulfide reductase (redox) activity (PDIA3)	Inhibition of disulfide reductase (redox) activity (PDIA3; listed as eupatorin)	Effect on disulfide reductase activity (in words) (PDIA3)
COc1ccc(-c2cc(=O)c3c(O)c(OC)c(OC)cc3o2)cc1O [Eupatorin, eupatorin]	greatest affinity	40%	up to 40%	noticeable inhibitory effect
O=c1cc(-c2ccc(O)cc2)oc2cc(O)cc(O)c12 [Apigenin, apigenin]	greatest affinity	–	–	no evident effect
COc1ccc(-c2cc(=O)c3c(OC)c(OC)c(OC)cc3o2)cc1O [Eupatorin-5-methyl ether, eupatorin-5-methyl-ether]	greatest affinity	up to 40%	–	noticeable inhibitory effect
